# Measurements taken from patent publication US20250221410A1, “SUBSTITUTED 2-C-AZINES AND SALTS THEREOF, AND USE THEREOF AS HERBICIDAL ACTIVE SUBSTANCES” (BAYER AKTIENGESELLSCHAFT, priority 2022, published 2025).
# Key:
# Format in all cases: in vivo
# KCHSC: Kochia scoparia = experiment: Post-emergence herbicidal efficacy at 1280 g/ha, KCHSC; settings: visual rating about 3 weeks after treatment vs untreated controls
# Protocol: (§1) Seeds of mono- and dicotyledonous weed plants were placed in plastic pots in sandy loam soil (doubly sown with in each case one species of mono- or dicotyledonous weed plants per pot), covered with soil and cultivated in a greenhouse under controlled growth conditions. 2 to 3 weeks after sowing, the test plants were treated at the one-leaf stage. The compounds of the invention, formulated in the form of wettable powders (WP) or as emulsion concentrates (EC), were applied to the green parts of the plants as aqueous suspension or emulsion with addition of 0.5% additive at a water application rate equivalent to 600 litres per hectare. After the test plants had been kept in the greenhouse under optimum growth conditions for about 3 weeks, the activity of the preparations was rated visually in comparison to untreated controls. For example, 100% activity=the plants have died, 0% activity=like control plants. Tables A1 to A12 below show the effects of selected compounds of the general formula (I) according to Table 1 on various harmful plants and at an application rate corresponding to 1280 g/ha, which were obtained by the trial procedure specified above.
# VERPE: Veronica persica [1] = experiment: Post-emergence herbicidal efficacy at 1280 g/ha, VERPE; settings: visual rating about 3 weeks after treatment vs untreated controls
# Protocol: as §1
# [2] = tested on: ABUTH: Abutilon theophrasti; experiment: Pre-emergence herbicide efficacy at 1280 g/ha, ABUTH; settings: visual scoring after about 3 weeks vs untreated controls
# Source text: (§2) Seeds of mono- and dicotyledonous weed plants were placed in plastic pots in sandy loam soil (doubly sown with one species each of mono- or dicotyledonous weed plants per pot) and covered with soil. The compounds of the invention, formulated in the form of wettable powders (WP) or as emulsion concentrates (EC), were then applied to the surface of the covering soil as aqueous suspension or emulsion with addition of 0.5% additive at a water application rate of 600 litres per hectare (converted). After the treatment, the pots were placed in a greenhouse and kept under good growth conditions for the test plants. After about 3 weeks, the efficacy of the preparations was scored visually in comparison with untreated controls as percentages. For example, 100% activity=the plants have died, 0% activity=like control plants. Tables C1 to C12 below show the effects of selected compounds of the general formula (I) according to Table 1 on various harmful plants and at an application rate corresponding to 1280 g/ha, which were obtained by the trial procedure specified above.
# [3] = tested on: AMARE: Amaranthus retroflexus; experiment: Post-emergence herbicidal efficacy at 1280 g/ha, AMARE; settings: rated visually after about 3 weeks vs untreated controls, 100% = plants have died, 0% = like control plants
# Protocol: as §1
# STEME: Stellaria media [4] = experiment: Post-emergence herbicidal efficacy at 1280 g/ha, STEME; settings: visual rating about 3 weeks after treatment vs untreated controls
# Protocol: as §1
# [5] = tested on: AMARE: Amaranthus retroflexus; experiment: Pre-emergence herbicide efficacy at 1280 g/ha, AMARE; settings: visual scoring after about 3 weeks vs untreated controls
# Source text: as §2
# STEME: Stellaria media [6] = experiment: Pre-emergence herbicide efficacy at 1280 g/ha, STEME; settings: visual scoring vs untreated controls
# Source text: as §2
# [7] = tested on: ABUTH: Abutilon theophrasti; experiment: Post-emergence herbicidal efficacy at 1280 g/ha, ABUTH; settings: rated visually after about 3 weeks vs untreated controls, 100% = plants have died, 0% = like control plants
# Protocol: as §1
# POAAN: Poa annua [8] = experiment: Post-emergence herbicidal efficacy at 1280 g/ha, POAAN; settings: visual rating about 3 weeks after treatment vs untreated controls
# Protocol: as §1
# POAAN: Poa annua [9] = experiment: Pre-emergence herbicide efficacy at 1280 g/ha, POAAN; settings: visual scoring after about 3 weeks vs untreated controls
# Source text: as §2
# SETVI: Setaria viridis = experiment: Pre-emergence herbicide efficacy at 1280 g/ha, SETVI; settings: visual scoring vs untreated controls
# Source text: as §2
# VERPE: Veronica persica [10] = experiment: Pre-emergence herbicide efficacy at 1280 g/ha, VERPE; settings: visual scoring vs untreated controls
# Source text: as §2
# [11] = tested on: DIGSA: Digitaria sanguinalis; experiment: Pre-emergence herbicide efficacy at 1280 g/ha, DIGSA; settings: visual scoring after about 3 weeks vs untreated controls
# Source text: as §2
# [12] = tested on: ECHCG: Echinochloa crus-galli; experiment: Pre-emergence herbicide efficacy at 1280 g/ha, ECHCG; settings: visual scoring after about 3 weeks vs untreated controls
# Source text: as §2
Structure (SMILES),Post-emergence efficacy against KCHSC (KCHSC: Kochia scoparia),Post-emergence efficacy against VERPE (VERPE: Veronica persica [1]),Pre-emergence efficacy against ABUTH [2],Post-emergence efficacy at 1280 g/ha against AMARE in % [3],Post-emergence efficacy against STEME (STEME: Stellaria media [4]),Pre-emergence efficacy against AMARE [5],Pre-emergence efficacy against STEME in % (STEME: Stellaria media [6]),Post-emergence efficacy at 1280 g/ha against ABUTH in % [7],Post-emergence efficacy against POAAN (POAAN: Poa annua [8]),Pre-emergence efficacy against POAAN (POAAN: Poa annua [9]),Pre-emergence efficacy against SETVI in % (SETVI: Setaria viridis),Pre-emergence efficacy against VERPE in % (VERPE: Veronica persica [10]),Pre-emergence efficacy against DIGSA [11],Pre-emergence efficacy against ECHCG [12]
N#CC(c1ncc(Cl)cn1)c1cccc(C(F)(F)F)c1Oc1ccc(F)cc1 (racemic) [Example 1-39],90%,100%,100%,,,,,,,,,,,
"N#CC(c1ncc(Cl)cn1)c1cccc(F)c1Oc1ccc(F)cc1 (stereo not drawn) [Example 1-34, (5-Chloropyrimidin-2-yl)[3-fluoro-2-(4-fluorophenoxy)phenyl]acetonitrile]",,100%,,90%,90%,90%,90%,,,,,,,
Fc1cnc(Cc2ccccc2CCCC(F)(F)F)nc1 [Example 1-3],90%,90%,,90%,90%,,,90%,100%,,,,,
COc1cccc(Cc2ncc(Cl)cn2)c1Oc1ccc(F)cc1 [Example 1-33],,90%,,,90%,100%,90%,,90%,100%,100%,100%,,
Cc1cc(C)c(-c2cc(C(F)F)no2)c(C(C#N)c2ncc(Cl)cn2)n1 (stereo not drawn) [Example 2-6],,,100%,,,90%,100%,,,,,,90%,
Clc1cnc(Cc2ccccc2Sc2ccc(Cl)cc2Cl)nc1 [Example 1-137],90%,90%,,100%,90%,100%,100%,90%,90%,90%,100%,,,
FC(F)(F)CCCOc1ccccc1Cc1ncc(Cl)cn1 [Example 1-8],,100%,,,90%,100%,90%,,,,90%,,100%,90%
Fc1ccc(-c2ccccc2Cc2ccc(Cl)cn2)cc1F [Example 1-97],100%,100%,,100%,90%,100%,,100%,100%,,,,,
Fc1cnc(Cc2ccccc2SCCC(F)(F)F)nc1 [Example 1-111],100%,100%,,100%,100%,100%,,90%,100%,,,,90%,
N#CC(c1ncc(Cl)cn1)c1ccccc1CCCC(F)(F)F (stereo not drawn) [Example 1-68],,,,100%,,,,,,,,,,
Cc1cccc(C(C#N)c2ncc(Cl)cn2)c1Oc1ccc(F)cc1 (racemic) [Example 1-30],,90%,,,,,,,,,,,,
Fc1cc(Cl)cnc1Oc1ccccc1Cc1ncccn1 [Example 1-77],,90%,90%,90%,90%,100%,90%,,90%,90%,,,90%,
N#CC(c1ccc(Cl)cn1)c1ccccc1CCCC(F)(F)F (stereo not drawn) [Example 1-73],,90%,,90%,,90%,,,,,,,,
